GI50 and TGI data for 20 molecules are collected here from PubChem BioAssay (NCI).

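How tested: cells in 96-well plates exposed to compound for 48 hours at five concentrations. Abbreviation: GI50, concentration required for 50% inhibition of growth. TGI marks complete inhibition of growth.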 Some results are limits rather than exact numbers.

Test systems include BT-549 breast; MCF7 breast; MDA-MB-435; MDA-N.
What all share (experiment): DTP human tumour cell line panel, 48 h

In the case of `C=C1C(=O)OC2CC3(C)OC3C3OC3C3=CC(OC3=O)C12` (centres undefined), the GI50 is 8.33 µM with BT-549 breast, 6.05 µM in the assay with MCF7 breast and 9.57 µM in the assay with MDA-MB-435. The figures for the TGI with BT-549 breast, in the assay with MCF7 breast and in the assay on MDA-MB-435 were 21.5 µM, 27.6 µM and 29.3 µM, respectively.
For the molecule `O=P1(O)c2ccccc2CS(=O)(=O)Cc2ccccc21`, the total growth inhibition concentration (TGI) in the assay on BT-549 breast, in the assay on MCF7 breast, in the assay on MDA-MB-435 and with MDA-N was greater than 100 µM each time.
Take `Cc1cc2c(C(C)C)c(O)c(O)c(C=O)c2c(O)c1-c1c(C)cc2c(C(C)C)c(O)c(O)c(C=O)c2c1O` (tested in a mixture with another compound): the values for the GI50 in the assay with BT-549 breast, in the assay on MCF7 breast and in the assay with MDA-MB-435 were 1.26 µM, 1.18 µM and 1.86 µM, respectively. Also, the concentration for total growth inhibition (TGI) in the assay on BT-549 breast is 3.76 µM; with MCF7 breast, 6.9 µM; in the assay with MDA-MB-435 it was 5.19 µM.
Regarding `Cc1cccnc1CNC1CC(NCc2ncccc2C)CC(NCc2ncccc2C)C1` (centres undefined), the GI50 in the assay with BT-549 breast was 2.95 µM; in the assay with MCF7 breast, 2.39 µM; in the assay on MDA-MB-435, 4.16 µM. Also, the total growth inhibition concentration (TGI) in the assay with BT-549 breast is 7.82 µM; in the assay on MCF7 breast, 5.21 µM; in the assay with MDA-MB-435, 10.7 µM.
For the molecule `O=C(NO)c1cnc(N2CCN(S(=O)(=O)c3ccc4ccccc4c3)CC2)nc1`, the GI50 with BT-549 breast is 0.803 µM; in the assay on MCF7 breast, 0.0369 µM; in the assay on MDA-MB-435 it was 0.0456 µM. The total growth inhibition concentration (TGI) was 53.4 µM in the assay on BT-549 breast, greater than 76 µM in the assay with MCF7 breast and 0.394 µM in the assay with MDA-MB-435.
Regarding `ClC1=C(Cl)C(Cl)=C(Cl)C1=Cc1ccc(Cl)cc1`, the GI50 is 0.428 µM in the assay with BT-549 breast, 0.386 µM in the assay on MCF7 breast and 0.507 µM with MDA-MB-435. The TGI came to 1.58 µM in the assay with BT-549 breast, 1.79 µM in the assay on MCF7 breast and 2.95 µM in the assay with MDA-MB-435.
As for `COc1ccc(-n2sc(=O)n(Cc3ccc(COC(=O)C(C)c4ccc(CC(C)C)cc4)cc3)c2=O)cc1` (centres undefined), the GI50 is 2.91 µM with BT-549 breast, 1.82 µM with MCF7 breast and 1.32 µM in the assay on MDA-MB-435. The TGI turned out to be 9.37 µM in the assay on BT-549 breast, 9.54 µM with MCF7 breast and 3.93 µM in the assay on MDA-MB-435.
For `CC[C@H](C)[C@H](NC(=O)C12CC(NC(C)=O)(C1)C2)C(=O)N(C)[C@H](C[C@@H](OC(C)=O)c1nc(C(=O)N[C@@H](Cc2ccccc2)C[C@H](C)C(=O)OC)cs1)C(C)C`, the concentration for 50% growth inhibition (GI50) in the assay with BT-549 breast was 0.0824 µM; in the assay with MCF7 breast, 0.0489 µM; with MDA-MB-435 it was 0.033 µM. Further, the TGI with BT-549 breast was 3.41 µM; with MCF7 breast it was greater than 16.7 µM; in the assay with MDA-MB-435 it was 0.501 µM.
Turning to `CCCCCc1c(C)[nH]c(/C=c2\[nH]/c(=C3/C=c4ccccc4=N3)cc2OC)c1C`, the GI50 with BT-549 breast is 0.08 µM; in the assay with MCF7 breast it was 0.0425 µM; in the assay on MDA-MB-435, 0.0455 µM. For the same molecule, the TGI in the assay on BT-549 breast was determined as 2.14 µM; in the assay with MCF7 breast, 1.43 µM; in the assay with MDA-MB-435, 1.16 µM.
As to `CCN1C(=O)N(CC)C2C1NN=c1s/c(=C\c3ccccc3)c(=O)n12` (centres undefined), the 50% growth inhibitory concentration (GI50) with BT-549 breast is 0.199 µM; in the assay with MCF7 breast it was 0.0463 µM; in the assay with MDA-MB-435 it was 0.0316 µM. Further, the TGI in the assay with BT-549 breast is greater than 100 µM; in the assay on MCF7 breast it was greater than 100 µM; in the assay on MDA-MB-435, 0.109 µM.
In the case of `CN1CCN(c2ccc3nc4c(nc3c2C(F)(F)F)C(=O)c2ncccc2C4=O)CC1`, the GI50 with BT-549 breast was 1.58 µM; with MCF7 breast, 0.316 µM; in the assay with MDA-MB-435 it was 0.178 µM. In addition, the TGI in the assay with BT-549 breast is 3.07 µM; in the assay with MCF7 breast it was 2.09 µM; in the assay on MDA-MB-435, 0.344 µM.
Consider `O=C(Nc1ccc(S(=O)(=O)NC2CCCCCC2)cc1)C(c1ccccc1)S(=O)(=O)c1ccc(F)cc1` (centres undefined), for which the values for the GI50 with BT-549 breast, with MCF7 breast and in the assay on MDA-MB-435 were 0.348 µM, 0.124 µM and 0.313 µM, respectively. Besides, the results for the TGI in the assay with BT-549 breast, with MCF7 breast and in the assay with MDA-MB-435 were 1.61 µM, 1.61 µM and 1.43 µM, respectively.
Take `CC(=O)/C=C/C1=C(c2ccsc2)c2ccccc2CC1`: the GI50 in the assay with BT-549 breast is 29.5 µM; in the assay on MCF7 breast it was 21.4 µM; with MDA-MB-435, 17.9 µM. The TGI worked out at 69.3 µM in the assay on BT-549 breast, 40 µM in the assay on MCF7 breast and 33.8 µM in the assay on MDA-MB-435.
For `C[C@@H]1CN2[C@H]3[C@@H]1CC[C@]31CCC(=O)O[C@]1(C)[C@@H]1CC[C@H]3CCC=C3[C@@H]12`, the GI50 with BT-549 breast is greater than 70 µM; in the assay on MCF7 breast it was greater than 70 µM; in the assay with MDA-MB-435, 48.2 µM. Also, the TGI with BT-549 breast, in the assay on MCF7 breast and in the assay with MDA-MB-435 was greater than 70 µM throughout.
Consider `CCN(CC)c1ccc2nc3c4ccccc4c(=NC(=O)c4ccccc4-c4c5ccc(N(CC)CC)cc5[o+]c5cc(N(CC)CC)ccc45)cc-3oc2c1`, for which the GI50 in the assay on BT-549 breast is 14 µM; with MCF7 breast it was 1.59 µM; in the assay with MDA-MB-435, 1.93 µM. The concentration for total growth inhibition (TGI) in the assay with BT-549 breast is 30.8 µM; with MDA-MB-435, 4.33 µM.
For the molecule `OC(c1ccccc1)c1c(-c2ccccc2)oc(-c2ccccc2)c1C(O)c1ccccc1` (centres undefined), the TGI in the assay on MCF7 breast came to 16.6 µM; in the assay on MDA-MB-435, 21.1 µM; in the assay with MDA-N, 24.6 µM.
`Cc1cc2nc3c4ccccc4n(CCN(C)C)c3nc2cc1C`: the GI50 in the assay with BT-549 breast is 2.07 µM; with MCF7 breast, 1.41 µM; in the assay with MDA-MB-435, 1.61 µM. Further, the total growth inhibition concentration (TGI) came out at 6.25 µM in the assay with BT-549 breast, 7.14 µM in the assay with MCF7 breast and 3.47 µM in the assay with MDA-MB-435.
Regarding `N#CSCC(=O)c1ccc(Cl)cc1`, the GI50 in the assay with BT-549 breast was 2.69 µM; in the assay on MCF7 breast, 2.53 µM; in the assay with MDA-MB-435, 2.28 µM. Further, the figures for the concentration for total growth inhibition (TGI) in the assay with BT-549 breast, with MCF7 breast and with MDA-MB-435 were 11.4 µM, 13.6 µM and 6.37 µM, respectively.
With `COc1cccc(Nc2nccc(Nc3ccc4[nH]ncc4c3)n2)c1`, the values for the GI50 in the assay with BT-549 breast, in the assay on MCF7 breast and in the assay on MDA-MB-435 were 1.67 µM, 1.26 µM and 1.49 µM, respectively. The values for the concentration for total growth inhibition (TGI) with BT-549 breast, in the assay with MCF7 breast and in the assay with MDA-MB-435 were 3.71 µM, 3.11 µM and 3.18 µM, respectively.
As to `C/C(=N\Nc1cccc(Cl)n1)c1ccccn1`, the GI50 with BT-549 breast was 1.4 µM; in the assay with MCF7 breast it was 2 µM; with MDA-MB-435, 1.78 µM. Besides, the results for the TGI in the assay with BT-549 breast, in the assay with MCF7 breast and in the assay with MDA-MB-435 were greater than 71.8 µM, greater than 100 µM and greater than 100 µM, respectively.

The term GI50 denotes the concentration at which growth is held to half of that of the control. A word on the TGI: it is the concentration giving total growth inhibition. Higher therefore signals lower sensitivity of the cells.
